# According to PubChem BioAssay (NCI):
#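 48-hour exposure; five concentrations; linearly interpolated endpoints. TGI marks complete inhibition of growth.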
# Legend:
# Assay in all cases: growth of human tumour cells (NCI), 48 h
# [1] = tested on: NCI-H226 lung
# [2] = tested on: M14 melanoma
# [3] = tested on: SF-539 CNS
# [4] = tested on: M19-MEL melanoma
# [5] = tested on: SR leukemia
# [6] = tested on: NCI-H23 lung
# [7] = tested on: SF-268 CNS
# [8] = tested on: IGROV1 ovarian
# [9] = tested on: NCI-H460 lung
# [10] = tested on: SNB-75 CNS
# [11] = tested on: SK-MEL-28 melanoma
# [12] = tested on: RXF 393 renal
# [13] = tested on: SF-295 CNS
# [14] = tested on: DLD-1 colon
# [15] = tested on: OVCAR-5 ovarian
# [16] = tested on: U251 CNS
# [17] = tested on: OVCAR-8 ovarian
# [18] = tested on: HOP-92 NSCLC
# [19] = tested on: UACC-257 melanoma
# [20] = tested on: UO-31 renal
# [21] = tested on: XF 498 CNS
# [22] = tested on: MOLT-4 leukemia
# [23] = tested on: SK-OV-3 ovarian
# [24] = tested on: HT29 colon
# [25] = tested on: HL-60(TB) leukemia
# [26] = tested on: ACHN renal
# [27] = tested on: KM20L2 colon
# [28] = tested on: CAKI-1 renal
# [29] = tested on: 786-0 renal
# [30] = tested on: MALME-3M melanoma
# [31] = tested on: TK-10 renal
# [32] = tested on: SN12C renal
# [33] = tested on: HCC-2998 colon
# [34] = tested on: DMS 273 small cell lung
# [35] = tested on: KM12 colon
# [36] = tested on: HCT-15 colon
# [37] = tested on: LOX IMVI melanoma
# [38] = tested on: DMS 114 small cell lung
# [39] = tested on: SK-MEL-5 melanoma
# [40] = tested on: NCI-H522 lung
# [41] = tested on: OVCAR-4 ovarian
# [42] = tested on: RPMI-8226 leukemia
# [43] = tested on: HOP-62 NSCLC
# [44] = tested on: UACC-62 melanoma
# [45] = tested on: SW-620 colon
# [46] = tested on: SNB-78 CNS
# [47] = tested on: K-562 leukemia
# [48] = tested on: COLO 205 colon
# [49] = tested on: A549 NSCLC
# [50] = tested on: HCT-116 colon
# [51] = tested on: OVCAR-3 ovarian
# [52] = tested on: SNB-19 CNS
# [53] = tested on: CCRF-CEM leukemia
# [54] = tested on: SK-MEL-2 melanoma
# [55] = tested on: EKVX NSCLC
smiles,measurement,setting,value
CCCCN(CCCC)CC(C(=O)Nc1ccccc1)/C(C)=N\NC(=O)c1ccncc1 (stereo unspecified),TGI,[1],> 100 µM
same,TGI,[2],> 100 µM
same,TGI,[3],> 100 µM
same,TGI,[4],> 100 µM
same,TGI,[5],> 100 µM
same,TGI,[6],> 100 µM
same,TGI,[7],> 100 µM
same,TGI,[8],> 100 µM
same,TGI,[9],> 100 µM
same,TGI,[10],> 100 µM
same,TGI,[11],> 100 µM
same,TGI,[12],> 100 µM
same,TGI,[13],> 100 µM
same,TGI,[14],> 100 µM
same,TGI,[15],> 100 µM
same,TGI,[16],> 100 µM
same,TGI,[17],> 100 µM
same,TGI,[18],> 100 µM
same,TGI,[19],> 100 µM
same,TGI,[20],> 100 µM
same,TGI,[21],> 100 µM
same,TGI,[22],> 100 µM
same,TGI,[23],> 100 µM
same,TGI,[24],> 100 µM
same,TGI,[25],> 100 µM
same,TGI,[26],> 100 µM
same,TGI,[27],> 100 µM
same,TGI,[28],> 100 µM
same,TGI,[29],> 100 µM
same,TGI,[30],> 100 µM
same,TGI,[31],> 100 µM
same,TGI,[32],> 100 µM
same,TGI,[33],> 100 µM
same,TGI,[34],> 100 µM
same,TGI,[35],> 100 µM
same,TGI,[36],> 100 µM
same,TGI,[37],> 100 µM
same,TGI,[38],> 100 µM
same,TGI,[39],> 100 µM
same,TGI,[40],> 100 µM
same,TGI,[41],> 100 µM
same,TGI,[42],> 100 µM
same,TGI,[43],> 100 µM
same,TGI,[44],> 100 µM
same,TGI,[45],> 100 µM
same,TGI,[46],> 100 µM
same,TGI,[47],> 100 µM
same,TGI,[48],> 100 µM
same,TGI,[49],> 100 µM
same,TGI,[50],> 100 µM
same,TGI,[51],> 100 µM
same,TGI,[52],> 100 µM
CCOC(=O)C(Cc1c(C=O)[nH]c2ccccc12)(NC(=O)c1ccccc1)C(=O)OCC,TGI,[1],45.9 µM
same,TGI,[2],33.7 µM
same,TGI,[53],39 µM
same,TGI,[3],30.3 µM
same,TGI,[4],31.8 µM
same,TGI,[5],> 100 µM
same,TGI,[6],37.1 µM
same,TGI,[7],39.5 µM
same,TGI,[8],43.7 µM
same,TGI,[9],59.7 µM
same,TGI,[11],34.2 µM
same,TGI,[12],26 µM
same,TGI,[13],33 µM
same,TGI,[54],32.4 µM
same,TGI,[14],25 µM
same,TGI,[15],35.3 µM
same,TGI,[16],25.5 µM
same,TGI,[17],65.7 µM
same,TGI,[18],31.3 µM
same,TGI,[19],39.2 µM
same,TGI,[20],62.4 µM
same,TGI,[21],32.1 µM
same,TGI,[22],37.1 µM
same,TGI,[23],79.8 µM
same,TGI,[24],37.2 µM
same,TGI,[25],> 100 µM
same,TGI,[26],39.3 µM
same,TGI,[29],34.7 µM
same,TGI,[30],33.9 µM
same,TGI,[31],69.9 µM
same,TGI,[32],26.6 µM
same,TGI,[33],24.6 µM
same,TGI,[55],42.7 µM
same,TGI,[35],26.9 µM
same,TGI,[36],29.8 µM
same,TGI,[38],39 µM
same,TGI,[39],24.5 µM
same,TGI,[42],> 100 µM
same,TGI,[45],32.1 µM
same,TGI,[47],45.2 µM
same,TGI,[48],34.7 µM
same,TGI,[49],42.2 µM
same,TGI,[51],40.3 µM
same,TGI,[52],18.4 µM
